Results published in patent US20210059955A1, “SYSTEMS AND METHODS FOR DECRYSTALLIZATION OF URIC ACID” (RL Patents, LLC, priority 2019, published 2021).
Where two headings read alike, the source gives them in different places.

Columns and labels:
[1] = test subject A, over the six-month experiment
Experimental: (§1) The method of the experiment includes test subject A submerging an affected joint into a warm bath containing water and sodium bicarbonate. The heat was used to facilitate opening of skin pores to facilitate absorption of the active ingredient or agent. […] Control subject B submerged their affected foot into a pure water bath without any other substance or compound at 38° C. for twice a day for durations of 60 minutes, and for a total of six months. […] A phlebotomist drew a vial of blood from each subject's arm, and the samples were processed by an analyzer, model AU480, by Beckman Coulter.
(§2) Both test subject A and control subject B were diagnosed of hyperuricemia based on personal and clinical assessments, such as, e.g., multiple previous acute gout attacks, presence of swelling and tophi at the affected joint, and measured uric acid serum levels above […]. Both test subject A and control subject B were not on any medication at the time of the experiment, and maintained a low-purine diet, such as, e.g., primarily fruits, vegetables, and bread.

[2] = test system: uric acid serum levels; conditions: test subject A; for Uric acid serum level: saturated sodium bicarbonate water bath 38° C., twice a day 60 minutes
Experimental: as §1, §2

Question: For `O=C([O-])O.[Na+]` [sodium bicarbonate], which “Tophi by visual inspection” value [1] is on record?
Answer: no longer visible

Question: What about the “Overall course of uric acid content” value ([2]; over the six-month experiment) of the same molecule?
Answer: general decline

Question: And the “Uric acid serum level” value ([2]; August 1 2018)?
Answer: 6.79 mg/dL

Question: And the “Uric acid serum level” value ([2]; August 15 2018)?
Answer: 6.47 mg/dL

Question: And the “Uric acid serum level” value ([2]; December 1 2018)?
Answer: 5.41 mg/dL

Question: What about the “Uric acid serum level” value ([2]; December 15 2018) of the same molecule?
Answer: 5.20 mg/dL

Question: And the “Uric acid serum level” value ([2]; July 1 2018)?
Answer: 6.62 mg/dL

Question: What about the “Uric acid serum level” value ([2]; July 15 2018) of the same molecule?
Answer: 6.58 mg/dL

Question: What about the “Uric acid serum level” value ([2]; June 1 2018) of the same molecule?
Answer: 6.99 mg/dL

Question: And the “Uric acid serum level” value ([2]; June 15 2018)?
Answer: 7.15 mg/dL

Question: What about the “Uric acid serum level” value ([2]; November 1 2018) of the same molecule?
Answer: 5.37 mg/dL

Question: And the “Uric acid serum level” value ([2]; November 15 2018)?
Answer: 5.34 mg/dL

Question: What about the “Uric acid serum level” value ([2]; October 1 2018) of the same molecule?
Answer: 5.47 mg/dL

Question: What about the “Uric acid serum level” value ([2]; October 15 2018) of the same molecule?
Answer: 5.40 mg/dL

Question: What about the “Uric acid serum level” value ([2]; September 1 2018) of the same molecule?
Answer: 5.98 mg/dL

Question: And the “Uric acid serum level” value ([2]; September 15 2018)?
Answer: 5.59 mg/dL
